The assay concerns the target T1, P2X7 receptor (Homo sapiens, UniProt Q99572).
T1 construct: host or cells: THP-1 cells differentiated with LPS and IFN-γ
T1 sequence (Q99572 1-595): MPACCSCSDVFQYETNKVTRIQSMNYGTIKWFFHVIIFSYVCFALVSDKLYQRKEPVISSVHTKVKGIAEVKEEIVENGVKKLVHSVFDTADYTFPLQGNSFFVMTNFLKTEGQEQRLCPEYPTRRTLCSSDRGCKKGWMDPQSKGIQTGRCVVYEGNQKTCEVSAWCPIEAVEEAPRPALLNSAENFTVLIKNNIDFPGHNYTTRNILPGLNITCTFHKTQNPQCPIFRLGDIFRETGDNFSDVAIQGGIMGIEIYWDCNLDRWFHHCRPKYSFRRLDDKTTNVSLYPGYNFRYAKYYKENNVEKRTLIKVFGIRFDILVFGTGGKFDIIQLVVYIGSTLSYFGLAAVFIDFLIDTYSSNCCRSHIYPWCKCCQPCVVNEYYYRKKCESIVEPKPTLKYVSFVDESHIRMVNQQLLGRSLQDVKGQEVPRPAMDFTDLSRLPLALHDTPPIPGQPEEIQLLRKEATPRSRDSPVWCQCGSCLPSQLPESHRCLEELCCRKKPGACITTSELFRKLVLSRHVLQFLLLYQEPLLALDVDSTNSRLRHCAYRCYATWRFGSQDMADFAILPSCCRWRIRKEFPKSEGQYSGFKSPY
The assay can be described thus: IL-1β release assay in differentiated THP-1 cells stimulated with BzATP (Example 9). The note with it: for inhibition at 0.3 µM: 0.3 μM compound, read-out: IL-1β % Inhib. @ 0.3 μM; for inhibition at 0.3 µM / inhibition at 0.1 µM: differentiated THP-1 cells, BzATP 250 uM; for inhibition: THP-1, read-out: IL-1β % Inhib.; for inhibition at 0.1 µM: 0.1 μM compound; for IC50: THP-1 cells, BzATP-stimulated IL-1β release, four parameter logistic fit. It is filed as cell-based. Also on record: inhibition: dose or concentration left out as unconfirmed. In outline: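 THP-1 cells differentiated 16 h with LPS and IFN-γ (100 ng/mL each), re-primed 2 h with LPS, then compound-pretreated 30 min before 250 uM BzATP for 45 min. Supernatant IL-1β quantified by ELISA; background-adjusted percent inhibition fitted to four-parameter logistic for IC50.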

Read-outs that look alike come from different tables or passages of the source. A value given as a limit tells only on which side of the number the result lay.

For 56 molecules, inhibition and IC50 results are on record in patent US8546579B2, “Bicycloheteroaryl compounds as P2X7 modulators and uses thereof” (Evotec (US) Inc., priority 2006, dated 2013).

On to `Cc1c(Cl)cccc1C(=O)Nc1cccc2c(=O)n(CC3CCOCC3)ccc12` [Compound 1120], for which, for the setting “'+' class symbols”, the inhibition at 0.3 µM lay within 0 to 25%.
For the molecule `Cc1cccc(C(=O)Nc2cccc3c(=O)n(Cc4cccnc4)ccc23)c1C` [Compound 1345], the inhibition at 0.3 µM (symbols + to ++++) fell in the range of 0 to 25%.
As to `COc1ccc(CC(=O)Nc2cccc3c(=O)n(CC4CCOCC4)ccc23)cc1C` [Compound 1127], for the setting “'+' class symbols”, the inhibition at 0.3 µM is 0 to 25%.
For the molecule `COc1ccc(OC)c(CC(=O)Nc2cccc3c(=O)n(CCN4CCOCC4)ccc23)c1` [Compound 1207], where the note is “symbols + to ++++”, the inhibition at 0.3 µM was in the range of 0 to 25%.
With `Cn1ccc2c(NC(=O)Cc3ccc4c(c3)OCO4)cccc2c1=O` [Compound 1301], for the setting “symbols + to ++++”, the inhibition at 0.3 µM fell in the range of 0 to 25%.
For `COCCn1ccc2c(NC(=O)Cc3ccccc3Cl)cccc2c1=O` [Compound 1436], the inhibition is 0 to 25%.
On to `Cc1ccccc1CCC(=O)Nc1cccc2c(=O)n(CCCN3CCCC3=O)ccc12` [Compound 1495], for which the inhibition lay in the range of 0 to 25%.
For the molecule `CC(C)(C)Cn1ccc2c(NC(=O)c3cccc4c3OCCO4)cccc2c1=O` [Compound 1272], the inhibition at 0.3 µM (symbols + to ++++) was 0 to 25%.
Regarding `COc1ccc(CCC(=O)Nc2cccc3c(=O)n(CC4CCN(C)CC4)ccc23)cc1` [Compound 1468], the inhibition was in the range of 0 to 25%.
On to `CC(C)Cc1ccc(C(=O)Nc2cccc3c(=O)n(CC(C)(C)C)ccc23)cc1` [Compound 1288], for which the inhibition at 0.3 µM (symbols + to ++++) was in the range of 0 to 25%.
For the molecule `COc1ccccc1CCC(=O)Nc1cccc2c(=O)n(Cc3ccc(OC(F)(F)F)cc3)ccc12` [Compound 1571], the inhibition lay within 0 to 25%.
On to `CCOc1ccc(C(=O)Nc2cccc3c(=O)n(CCN(C)C)ccc23)c(O)c1` [Compound 1397], for which, for the setting “symbols * to ****, read-out: IL-1β % Inhib. (asterisk symbols: at 0.1 μM)”, the inhibition at 0.1 µM was in the range of 0 to 25%.
`Cc1cccc(CCC(=O)Nc2cccc3c(=O)n(CC(C)(C)C)ccc23)c1` [Compound 1284]: the inhibition at 0.3 µM (symbols + to ++++) lay in the range of 0 to 25%.
The term IC50 denotes the concentration that gives 50% inhibition. `CC(=O)OCCn1ccc2c(NC(=O)CCc3cc(C(F)(F)F)ccc3C(F)(F)F)cccc2c1=O` [Compound 1374] returned an IC50 of 40.6 nM. In addition, the inhibition at 0.3 µM (symbols + to ++++) is ≥ 76%.
For `CN(C)CCn1ccc2c(NC(=O)c3ccc(Cl)cc3Cl)cccc2c1=O` [Compound 1138], the inhibition at 0.3 µM ('+' class symbols) is 0 to 25%.
`CO[C@@](C(=O)Nc1cccc2c(=O)n(CCN(C)C)ccc12)(c1ccccc1)C(F)(F)F` [Compound 1615]: the IC50 is > 1000 nM. In addition, under “"+" class symbols”, the inhibition at 0.3 µM was 0 to 25%.
For `CCOc1ccccc1CC(=O)Nc1cccc2c(=O)n(CCOC)ccc12` [Compound 1336], where the note is “symbols + to ++++”, the inhibition at 0.3 µM lay within 0 to 25%.
`COc1ccccc1CC(=O)Nc1cccc2c(=O)n(CCN3CCOCC3)ccc12` [Compound 1206]: the inhibition at 0.3 µM (symbols + to ++++) lay within 0 to 25%.
For `CC(=O)OCCn1ccc2c(NC(=O)c3ccc(C(F)(F)F)cc3C(F)(F)F)cccc2c1=O` [Compound 1014], the midpoint of inhibition, the IC50, lay at 326 nM. For the same molecule, where the note is “'+' class symbols”, the inhibition at 0.3 µM is 26 to 50%.
As for `COc1ccc(CC(=O)Nc2cccc3c(=O)n(CC4CCOCC4)ccc23)cc1` [Compound 1105], the inhibition at 0.3 µM ('+' class symbols) is 0 to 25%.
For the molecule `Cn1ccc2c(NC(=O)c3cc4ccccc4o3)cccc2c1=O` [Compound 1300], the inhibition at 0.3 µM (symbols + to ++++) lay in the range of 0 to 25%.
As for `O=C(Nc1cccc2c(=O)n(CC3CCOCC3)ccc12)c1ccccc1Cl` [Compound 1082], for the setting “'+' class symbols”, the inhibition at 0.3 µM was in the range of 26 to 50%.
On to `Cc1ccccc1CCC(=O)Nc1cccc2c(=O)n(Cc3cccnc3)ccc12` [Compound 1406], for which the inhibition lay within 0 to 25%.
Turning to `O=C(Cc1ccc2c(c1)OCO2)Nc1cccc2c(=O)n(Cc3cccnc3)ccc12` [Compound 1359], the inhibition at 0.3 µM (symbols + to ++++) lay within 26 to 50%.
Turning to `CC(=O)OCCn1ccc2c(NC(=O)CCc3ccc(S(C)(=O)=O)cc3)cccc2c1=O` [Compound 1383], the IC50 was > 1000 nM. Further, for the setting “symbols + to ++++”, the inhibition at 0.3 µM lay within 0 to 25%.
With `CN1CCC(Cn2ccc3c(NC(=O)C4C[C@@H]5CC[C@H]4C5)cccc3c2=O)CC1` (some centres unmarked) [Compound 1483], the inhibition was 26 to 50%.
In the case of `COCCn1ccc2c(NC(=O)Cc3ccc(OC)cc3)cccc2c1=O` [Compound 1316], the inhibition at 0.3 µM (symbols + to ++++) is 0 to 25%.
As to `Cc1c(Cl)cccc1C(=O)Nc1cccc2c(=O)n(CCN3CCOCC3)ccc12` [Compound 1227], the inhibition at 0.3 µM (symbols + to ++++) is 0 to 25%.
Regarding `CC(C)(C)OC(=O)N1CCC[C@H]1Cn1ccc2c(NC(=O)CC3CCCCCC3)cccc2c1=O` [Compound 1619], the IC50 was found to be 67.2 nM. For the same molecule, the inhibition at 0.3 µM ("+" class symbols) was ≥ 76%.
For the molecule `COCCn1ccc2c(NC(=O)c3ccc(OC)c(C)c3)cccc2c1=O` [Compound 1340], the inhibition at 0.3 µM (symbols + to ++++) lay in the range of 0 to 25%.
Regarding `COc1ccccc1CCC(=O)Nc1cccc2c(=O)n(CCN(C)C)ccc12` [Compound 1149], under “'*' class symbols, read-out: IL-1β % Inhib. (asterisk classes, 0.1 μM)”, the inhibition at 0.1 µM fell in the range of 0 to 25%.
Regarding `CC(=O)OCCn1ccc2c(NC(=O)Cc3ccc(Cl)cc3Cl)cccc2c1=O` [Compound 1381], inhibition was half-maximal at 34.1 nM (IC50). Under “symbols + to ++++”, the inhibition at 0.3 µM is ≥ 76%.
As to `CCOc1ccc(C(=O)Nc2cccc3c(=O)n(CCOC)ccc23)cc1` [Compound 1429], the inhibition lay in the range of 0 to 25%.
As to `CN(C)CCn1ccc2c(NC(=O)C(Cl)c3ccccc3)cccc2c1=O` (centres unmarked) [Compound 1017], the IC50 was 367 nM. Further, the inhibition at 0.3 µM ('+' class symbols) lay in the range of 26 to 50%.
`Cc1cc(C(=O)Nc2cccc3c(=O)n(Cc4ccc(OC(F)(F)F)cc4)ccc23)ccc1F` [Compound 1602]: the inhibition at 0.1 µM ("*" class symbols, read-out: IL-1β % Inhib. ("*" symbols: at 0.1 μM)) was in the range of 0 to 25%.
Regarding `Cc1ccc(CC(=O)Nc2cccc3c(=O)n(C)ccc23)cc1` [Compound 1423], the inhibition lay in the range of 0 to 25%.
On to `CN1CCC(Cn2ccc3c(NC(=O)CC4CC5CC[C@H]4C5)cccc3c2=O)CC1` (some centres unmarked) [Compound 1479], for which the inhibition is 0 to 25%.
Turning to `Cc1ccc(CCC(=O)Nc2cccc3c(=O)n(CC(C)(C)C)ccc23)c(C)c1` [Compound 1286], the inhibition at 0.3 µM (symbols + to ++++) was 0 to 25%.
For the molecule `Cc1ccccc1CC(=O)Nc1cccc2c(=O)n(Cc3ccc(OC(F)(F)F)cc3)ccc12` [Compound 1579], the inhibition was 0 to 25%.
As to `O=C(Cc1cccc2ccccc12)Nc1cccc2c(=O)n(Cc3ccc(OC(F)(F)F)cc3)ccc12` [Compound 1573], the inhibition is 0 to 25%.
As to `Cc1ccc(C(=O)Nc2cccc3c(=O)n(CCN4CCOCC4)ccc23)cc1Cl` [Compound 1220], the inhibition at 0.3 µM (symbols + to ++++) is 0 to 25%.
Regarding `CC(C)(C)Cn1ccc2c(NC(=O)CCc3cccc(Cl)c3)cccc2c1=O` [Compound 1287], the inhibition at 0.3 µM (symbols + to ++++) fell in the range of 0 to 25%.
Regarding `Cn1ccc2c(NC(=O)[C@@]34C[C@@H]5C[C@@H](C[C@@H]3C5)C4)cccc2c1=O` [Compound 1303], the inhibition at 0.3 µM (symbols + to ++++) was 0 to 25%.
Consider `O=C(CCc1ccccc1Cl)Nc1cccc2c(=O)n(CC3CCOCC3)ccc12` [Compound 1031], for which the inhibition at 0.3 µM ('+' class symbols) is 26 to 50%.
As to `Cc1ccc(CC(=O)Nc2cccc3c(=O)n(CCCN4CCCC4=O)ccc23)cc1` [Compound 1524], the inhibition lay in the range of 0 to 25%.
`CCOc1ccc(CC(=O)Nc2cccc3c(=O)n(CC(C)(C)C)ccc23)cc1` [Compound 1261]: the inhibition at 0.3 µM (symbols + to ++++) fell in the range of 0 to 25%.
With `CC(C)(C)Cn1ccc2c(NC(=O)CCc3ccc(Cl)cc3)cccc2c1=O` [Compound 1417], the inhibition was 26 to 50%.
For `CN(C)CCn1ccc2c(NC(=O)CCc3ccc4c(c3)OCO4)cccc2c1=O` [Compound 1038], the inhibition at 0.3 µM ('+' class symbols) was 0 to 25%.
The same measure, in the same setting: the figure for `CC(C)(C)Cn1ccc2c(NC(=O)CCc3ccccc3Cl)cccc2c1=O` [Compound 1054] is 0 to 25%.
`CN(C)CCn1ccc2c(NC(=O)Cc3ccc(Cl)c(C(F)(F)F)c3)cccc2c1=O` [Compound 1385] had an IC50 of 152 nM. In addition, the inhibition at 0.3 µM (symbols + to ++++) is ≥ 76%.
Turning to `Cc1cc(Cl)ccc1C(=O)Nc1cccc2c(=O)n(Cc3ccc(OC(F)(F)F)cc3)ccc12` [Compound 1592], the inhibition was in the range of 0 to 25%.
As for `O=C(CCc1ccc(Cl)cc1)Nc1cccc2c(=O)n(CCN3CCOCC3)ccc12` [Compound 1232], for the setting “symbols + to ++++”, the inhibition at 0.3 µM lay in the range of 0 to 25%.
Consider `O=C(Cc1cccc(C(F)(F)F)c1F)Nc1cccc2c(=O)n(Cc3ccccn3)ccc12` [Compound 1627], for which it took 416 nM to reach half-maximal inhibition (IC50). For the same molecule, the inhibition at 0.3 µM ("+" class symbols) was 26 to 50%.
Consider `COc1ccc(OC)c(CC(=O)Nc2cccc3c(=O)n(CCN(C)C)ccc23)c1` [Compound 1156], for which, for the setting “'+' class symbols”, the inhibition at 0.3 µM is 0 to 25%.
Still for that read-out and setting: the figure for `COc1ccc(OC)c(CC(=O)Nc2cccc3c(=O)n(CC4CCOCC4)ccc23)c1` [Compound 1100] is 0 to 25%.
Turning to `CC(C(=O)Nc1cccc2c(=O)n(CCCN3CCCC3=O)ccc12)c1ccccc1` (centres unmarked) [Compound 1517], the inhibition was in the range of 0 to 25%.
